# Data reported in patent US20250169495A1, “COMPOSITIONS AND METHODS FOR CONTROLLING DROSOPHILA FLIES” (Rutgers, The State University of New Jersey, priority 2023, published 2025).
# Legend:
# Drosophila suzukii = assay: Semi-field cage oviposition deterrence, potted blueberry bushes; format: in vivo; conditions: N=10; for fewer eggs laid in treated berries than in control berries: sachet 2.5 mL, 24 h
# Method: Semi-field cage experiments were conducted from June until July to evaluate the oviposition deterrent effects of ethyl butanoate, ethyl (E)-but-2-enoate, and 2-pentylfuran against D. suzukii. These experiments are considered semi-field because they took place in an isolated open field surrounded by woods with potted plants inside outdoor cages. The cages were constructed using polyvinyl chloride (PVC) pipes (3.8 cm diameter) to construct 1.8 m×1.8 m×1.8 m frames. Screen tents (Lumite® screen portable field cages; BioQuip, CA, USA) were placed over the PVC frames, and large nails were used to secure the tents to the ground (FIG. 6A). Cages were spaced 10 m apart. To obtain blueberries for the experiment, prior to the start of the experiment, field-grown highbush blueberry (Vaccinium corymbosum L. var. ‘Bluecrop’) clusters were bagged early in the season with cloth bags when they were still green to prevent infestation from resident D. suzukii populations for use in the experiment. In addition, 80 3-to-4-year-old potted blueberry bushes were stripped of their berries and used for the experiment. On the day of testing, two bushes were placed in each cage (FIG. 6B). Each bush in the tent was surrounded by a metal tomato cage. The bagged blueberry fruit clusters in the field were clipped and brought inside the cages. Clusters of 10 berries were created and placed in water picks. Five berry clusters were distributed randomly and evenly on each tomato cage at different heights using green twist ties (FIG. 6B). The sachets used for the treatments were prepared according to the methods described by Gale et al. (2024). They were constructed from 8 cm strips of polyethylene tubing (5.1 cm width, 2 MIL thickness; ULINE, Pleasant Prairie, WI, USA) and polyester felt (Grainger, Lake Forest, IL, USA). One end of the polyethylene tubing was sealed with an impulse sealer. A 5 cm strip of felt was placed inside the sachet's open end, and a 2.5 mL aliquot of each treatment was pipetted onto the felt. The open end was then sealed shut with the impulse sealer, entirely sealing the saturated felt. A hole was punched at the top of each sachet, away from the treatment area to avoid damaging the sealed section, and green twist ties were used to hang the sachets in the center of a bush (FIG. 6B). Before loading the sachets, the weights of the empty sachets were taken. The sachets were weighed again directly after loading with the compounds and then a final time after the 24-hour test period to measure the emission rates of each volatile. In each cage, one of the bushes contained a sachet with the test volatile, while the other contained a blank sachet (control). Sachets were hung in the bushes 30 minutes prior to the start of experiments. Choice tests included: 1) control versus control; 2) control versus ethyl butanoate; […]) control versus ethyl (E)-but-2-enoate; and 4) control versus 2-pentylfuran. Fifty flies (1:1 male: female) were released in each cage at 18:00 hrs. After 24 hours, the berry clusters were collected and placed in 118 mL plastic cups. Berries were inspected under a dissection microscope for the number of eggs laid and were then incubated in 236.6 mL (8-oz) deli containers lined with two cotton pads on a laboratory bench at 22±2° C. and 55±5% relative humidity for two weeks to monitor for adult emergence. The study was replicated 10 times for each choice combination (N=4 choice combinations×2 bushes each×10 replicates=total of 80 bushes; N=50 flies×4 choice combinations×10 replicates=total of 2,000 flies). Semi-field cage data were analyzed using paired t-tests to determine differences between the number of eggs laid and adults that emerged from treated berries compared to control berries, and survival data were analyzed using two-way analysis of variance (ANOVA) (R statistical software version 4.1.1; R Development Core Team, Vienna, Austria). […]
# [1] = Emission rate from polyethylene sachets, semi-field cages; format: physicochemical; conditions: sachet with 2.5 mL, 24 h
# Method: On the day of testing, two bushes were placed in each cage (FIG. 6B). Each bush in the tent was surrounded by a metal tomato cage. The bagged blueberry fruit clusters in the field were clipped and brought inside the cages. Clusters of 10 berries were created and placed in water picks. Five berry clusters were distributed randomly and evenly on each tomato cage at different heights using green twist ties (FIG. 6B). The sachets used for the treatments were prepared according to the methods described by Gale et al. (2024). They were constructed from 8 cm strips of polyethylene tubing (5.1 cm width, 2 MIL thickness; ULINE, Pleasant Prairie, WI, USA) and polyester felt (Grainger, Lake Forest, IL, USA). One end of the polyethylene tubing was sealed with an impulse sealer. A 5 cm strip of felt was placed inside the sachet's open end, and a 2.5 mL aliquot of each treatment was pipetted onto the felt. The open end was then sealed shut with the impulse sealer, entirely sealing the saturated felt. A hole was punched at the top of each sachet, away from the treatment area to avoid damaging the sealed section, and green twist ties were used to hang the sachets in the center of a bush (FIG. 6B). Before loading the sachets, the weights of the empty sachets were taken. The sachets were weighed again directly after loading with the compounds and then a final time after the 24-hour test period to measure the emission rates of each volatile. Finally, the emission rates of compounds in the semi-field and field cage studies were calculated by subtracting the final weight of the sachets from the initial weight and dividing by the time interval (24 h or 3 days). These rates were then compared across repellent treatments using ANOVA, with Tukey pairwise comparisons conducted when significant differences were found.
mean emission rate (±SE) [1],Compound,deterrence index (DI) based on number of eggs laid (Drosophila suzukii),difference in adult emergence between untreated and treated berries (Drosophila suzukii; berries incubated two weeks),fewer eggs laid in treated berries than in control berries (Drosophila suzukii),fewer flies (adult progeny) emerging from treated berries than from control berries (Drosophila suzukii; berries incubated two weeks)
82.3 ± 7.6 mg/h,"CCCCCc1ccco1 [2-pentylfuran, reference compound]",performed similarly and were significantly different from the control,nonsignificant,67%,–
54.9 ± 8.9 mg/h,C/C=C/C(=O)OCC [ethyl (E)-but-2-enoate],performed similarly and were significantly different from the control,–,75%,78%
70.4 ± 14.2 mg/h,CCCC(=O)OCC [ethyl butanoate],performed similarly and were significantly different from the control,–,54%,59%
